Test results reported in patent US9328083B2, “2-aminated methylene or 2-esterified methylene tanshinone derivatives, and preparation method and application thereof” (HANGZHOU BENSHENG PHARMACEUTICAL CO., LTD., priority 2011, dated 2016).
Values after ≈ are worked out from the molar mass of the structure shown.

How the values were obtained:
[1] = test system: H9 (acute lymphoblastic leukemia, ALL); experiment: MTT growth inhibition of leukemia cells, 72 h; type: cell-based, human; settings: Homo sapiens, H9, 72 h; for IC50: read-out: IC50; for IC90: read-out: IC90
In short: (§1)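 Seed 6000 cells per well in serum-supplemented RPMI-1640 (10% FBS); next day add derivatives at several concentrations, diluted from a 10 mg/mL DMSO stock; incubate 72 h at 37 °C, 5% CO2; quantify surviving cells with MTT.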

[2] = test system: Jurkat (acute lymphoblastic leukemia, ALL); experiment: MTT growth inhibition of leukemia cells, 72 h; type: cell-based, human; settings: Homo sapiens, 72 h; for IC50: read-out: IC50; for IC90: read-out: IC90
In short: as §1

[3] = test system: K562/adr (drug-resistant, chronic myeloid leukemia, CML); experiment: MTT growth inhibition of leukemia cells, 72 h; type: cell-based, human; settings: Homo sapiens, K562/Adr; for IC50: read-out: IC50; for IC90: read-out: IC90
In short: as §1

[4] = test system: Kasumi-1 (acute myeloid leukemia M2 type, AML-M2); experiment: MTT growth inhibition of leukemia cells, 72 h; type: cell-based, human; settings: Homo sapiens, Kasumi-1, 72 h; for IC50: read-out: IC50; for IC90: read-out: IC90
In short: as §1

[5] = test system: NB4 (acute promyelocytic leukemia, AML); experiment: MTT growth inhibition of leukemia cells, 72 h; type: cell-based, human; settings: Homo sapiens, NB4, 72 h; for IC50: read-out: IC50; for IC90: read-out: IC90
In short: as §1

[6] = test system: RPMI8226 (multiple myeloma); experiment: MTT growth inhibition of multiple myeloma cells, 72 h; type: cell-based, human; settings: Homo sapiens, RPMI 8226, 72 h; for IC50: read-out: IC50; for IC90: read-out: IC90
In short: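 Viability read by MTT after 72 h at 37° C, 5% CO2: compounds from a 10 mg/mL DMSO stock were diluted in medium and added at several concentrations to 6000 RPMI8226 cells per well in 1640 medium plus 10% FBS.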

[7] = test system: A549 (human lung cancer); experiment: MTT growth inhibition of human solid tumor cells, 72 h; type: cell-based; settings: Homo sapiens, A549, 72 h; for IC50: read-out: IC50; for IC90: read-out: IC90
In short: (§2)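 Viability was read by MTT after 72 h of compound exposure at 37°C, 5% CO2, in cells seeded at 4000 per well and pre-grown for 24 h in DMEM high glucose plus 10% FBS. Test solutions came from a 10 mg/mL DMSO stock diluted in medium.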

[8] = test system: Becap37 (human breast cancer cell); experiment: as above; type: cell-based; settings: Homo sapiens, Becap-37, 72 h; for IC50: read-out: IC50; for IC90: read-out: IC90
In short: as §2

[9] = test system: CNE (nasopharyngeal carcinoma cell); experiment: as above; type: cell-based; settings: Homo sapiens; for IC50: read-out: IC50; for IC90: read-out: IC90
In short: as §2

[10] = test system: CaES-17 (esophageal cancer cell); experiment: as above; type: cell-based; settings: Homo sapiens, CaEs17, CaEs-17, 72 h; for IC50: read-out: IC50; for IC90: read-out: IC90
In short: as §2

[11] = test system: Hela (human cervical cancer cell); experiment: as above; type: cell-based; settings: Homo sapiens, HeLa, 72 h; for IC50: read-out: IC50; for IC90: read-out: IC90
In short: as §2

[12] = test system: Hep G2 (human liver cancer cell); experiment: as above; type: cell-based; settings: Homo sapiens, HepG2, Hep G2, 72 h; for IC50: read-out: IC50; for IC90: read-out: IC90
In short: as §2

[13] = test system: Hep-2 (laryngeal carcinoma); experiment: as above; type: cell-based; settings: Homo sapiens, HEp-2, 72 h; for IC50: read-out: IC50; for IC90: read-out: IC90
In short: as §2

[14] = test system: MG63 (osteosarcoma); experiment: as above; type: cell-based; settings: Homo sapiens, MG-63, 72 h; for IC50: read-out: IC50; for IC90: read-out: IC90
In short: as §2

[15] = test system: MGC 803 (human gastric cancer cell); experiment: as above; type: cell-based; settings: Homo sapiens, MGC-803, 72 h; for IC50: read-out: IC50; for IC90: read-out: IC90
In short: as §2

[16] = test system: PANC-1 (pancreatic cancer); experiment: as above; type: cell-based; settings: Homo sapiens, PANC-1, 72 h; for IC50: read-out: IC50; for IC90: read-out: IC90
In short: as §2

[17] = test system: PC-3 (prostate cancer); experiment: as above; type: cell-based; settings: Homo sapiens, PC-3, 72 h; for IC50: read-out: IC50; for IC90: read-out: IC90
In short: as §2

[18] = test system: RKO (human colon adenocarcinoma cell); experiment: as above; type: cell-based; settings: Homo sapiens; for IC50: read-out: IC50; for IC90: read-out: IC90
In short: as §2

[19] = test system: SK-OV-3 (ovarian cancer cell); experiment: as above; type: cell-based; settings: Homo sapiens, SK-OV-3, 72 h; for IC50: read-out: IC50; for IC90: read-out: IC90
In short: as §2

[20] = test system: U87 MG (malignant glioma cell); experiment: as above; type: cell-based; settings: Homo sapiens, U-87 MG, U87-MG, 72 h; for IC50: read-out: IC50; for IC90: read-out: IC90
In short: as §2

SMILES | IC50 [1] | IC90 [1] | IC50 [2] | IC90 [2] | IC50 [3] | IC90 [3] | IC50 [4] | IC90 [4] | IC50 [5] | IC90 [5] | IC50 [6] | IC90 [6] | IC50 [7] | IC90 [7] | IC50 [8] | IC90 [8] | IC50 [9] | IC90 [9] | IC50 [10] | IC90 [10] | other results
Cc1c(CN(C)CCOC(=O)CNC(=O)OC(C)(C)C)oc2c1C(=O)C(=O)c1c-2ccc2c(C)cccc12 [BS-TA-72] | 0.45 µg/mL (≈ 0.864 µM) | 1.6 µg/mL (≈ 3.07 µM) | 0.31 µg/mL (≈ 0.595 µM) | 0.99 µg/mL (≈ 1.9 µM) | 1.5 µg/mL (≈ 2.88 µM) | 2 µg/mL (≈ 3.84 µM) | 0.28 µg/mL (≈ 0.538 µM) | 0.47 µg/mL (≈ 0.903 µM) | 0.35 µg/mL (≈ 0.672 µM) | 0.71 µg/mL (≈ 1.36 µM) | 0.12 µg/mL (≈ 0.231 µM) | 0.87 µg/mL (≈ 1.67 µM) | 1.07 µg/mL (≈ 2.06 µM) | 3.7 µg/mL (≈ 7.11 µM) | 1.02 µg/mL (≈ 1.96 µM) | 1.94 µg/mL (≈ 3.73 µM) | 2.02 µg/mL (≈ 3.88 µM) | 3.61 µg/mL (≈ 6.93 µM) | 1.84 µg/mL (≈ 3.53 µM) | 3.98 µg/mL (≈ 7.65 µM) | IC50 [11]: 0.89 µg/mL (≈ 1.71 µM); IC90 [11]: 1.84 µg/mL (≈ 3.53 µM); IC50 [12]: 0.71 µg/mL (≈ 1.36 µM); IC90 [12]: 3.85 µg/mL (≈ 7.4 µM); IC50 [13]: 1.59 µg/mL (≈ 3.05 µM); IC90 [13]: 3.77 µg/mL (≈ 7.24 µM); IC50 [14]: 1.08 µg/mL (≈ 2.07 µM); IC90 [14]: 2.56 µg/mL (≈ 4.92 µM); IC50 [15]: 1.5 µg/mL (≈ 2.88 µM); IC90 [15]: 9.94 µg/mL (≈ 19.1 µM); IC50 [16]: 0.75 µg/mL (≈ 1.44 µM); IC90 [16]: 8.96 µg/mL (≈ 17.2 µM); IC50 [17]: 1.68 µg/mL (≈ 3.23 µM); IC90 [17]: 9.92 µg/mL (≈ 19.1 µM); IC50 [18]: 0.25 µg/mL (≈ 0.48 µM); IC90 [18]: 2.38 µg/mL (≈ 4.57 µM); IC50 [19]: 5.91 µg/mL (≈ 11.4 µM); IC90 [19]: 10.9 µg/mL (≈ 21 µM); IC50 [20]: 1.46 µg/mL (≈ 2.8 µM); IC90 [20]: 3.65 µg/mL (≈ 7.01 µM)
Cc1c(CN(C)CCOC(=O)CCC(=O)O)oc2c1C(=O)C(=O)c1c-2ccc2c(C)cccc12 [BS-TA-73] | 0.19 µg/mL (≈ 0.41 µM) | 0.97 µg/mL (≈ 2.09 µM) | 0.98 µg/mL (≈ 2.11 µM) | 3.4 µg/mL (≈ 7.34 µM) | 1.38 µg/mL (≈ 2.98 µM) | 2.74 µg/mL (≈ 5.91 µM) | 0.27 µg/mL (≈ 0.583 µM) | 0.73 µg/mL (≈ 1.58 µM) | 0.21 µg/mL (≈ 0.453 µM) | 0.68 µg/mL (≈ 1.47 µM) | 0.38 µg/mL (≈ 0.82 µM) | 1.55 µg/mL (≈ 3.34 µM) | 1.72 µg/mL (≈ 3.71 µM) | 4.79 µg/mL (≈ 10.3 µM) | 1.06 µg/mL (≈ 2.29 µM) | 1.91 µg/mL (≈ 4.12 µM) | 1.38 µg/mL (≈ 2.98 µM) | 3.7 µg/mL (≈ 7.98 µM) | 1.14 µg/mL (≈ 2.46 µM) | 1.86 µg/mL (≈ 4.01 µM) | IC50 [11]: 1 µg/mL (≈ 2.16 µM); IC90 [11]: 3.81 µg/mL (≈ 8.22 µM); IC50 [12]: 1.39 µg/mL (≈ 3 µM); IC90 [12]: 4.64 µg/mL (≈ 10 µM); IC50 [13]: 0.81 µg/mL (≈ 1.75 µM); IC90 [13]: 3.21 µg/mL (≈ 6.93 µM); IC50 [14]: 1.01 µg/mL (≈ 2.18 µM); IC90 [14]: 3.71 µg/mL (≈ 8 µM); IC50 [15]: 0.84 µg/mL (≈ 1.81 µM); IC90 [15]: 4.9 µg/mL (≈ 10.6 µM); IC50 [16]: 1.07 µg/mL (≈ 2.31 µM); IC90 [16]: 5 µg/mL (≈ 10.8 µM); IC50 [17]: 1.73 µg/mL (≈ 3.73 µM); IC90 [17]: 7.04 µg/mL (≈ 15.2 µM); IC50 [18]: 0.2 µg/mL (≈ 0.432 µM); IC90 [18]: 0.87 µg/mL (≈ 1.88 µM); IC50 [19]: 3.54 µg/mL (≈ 7.64 µM); IC90 [19]: 7.27 µg/mL (≈ 15.7 µM); IC50 [20]: 1.19 µg/mL (≈ 2.57 µM); IC90 [20]: 3.44 µg/mL (≈ 7.42 µM)
